Experimental data published in ChEMBL document CHEMBL6071211, “Invention of VH-937, a Potent HIV-1 Maturation Inhibitor with the Potential for Infrequent Oral Dosing in Humans” (ACS Med Chem Lett, 2024).
pEC50: −log10 of the molar value.

Tests used:
[1] = test system: Human immunodeficiency virus 1; test: Ratio of EC50 for antiviral activity against fully replicating pseudotype HIV1 harboring Gag V3621/V370A mutant by single cycle assay to EC50 for antiviral activity against fully replicating wild type pseudotype HIV1 NLRepRluc-P373S by single cycle assay; format: functional
[2] = Oral bioavailability in rat at 5 mg/kg; format: ADME, organism-based; conditions: in vivo
[3] = test system: Human immunodeficiency virus 1; test: Ratio of EC50 for antiviral activity against fully replicating HIV1 harboring Gag A364V mutant by multicycle assay to EC50 for antiviral activity against fully replicating wild type HIV1 NLRepRluc-P373S by multicycle assay; format: functional
[4] = test system: Human immunodeficiency virus 1; test: In vitro antiviral activity against fully replicating pseudotype HIV1 harboring Gag A364V mutant by single cycle assay; format: functional, organism-based
[5] = test system: Human immunodeficiency virus 1; test: In vitro antiviral activity against fully replicating pseudotype HIV1 harboring Gag T332S/[…]/prR41G mutant by single cycle assay; format: functional, organism-based
[6] = Oral bioavailability in dog at 5 mg/kg; format: ADME, organism-based, Canis lupus familiaris; conditions: in vivo
[7] = test system: Human immunodeficiency virus 1; test: In vitro antiviral activity against fully replicating HIV1 harboring Gag V370A mutant assessed as maximum percent inhibition by multicycle assay relative to control; format: functional
[8] = Elimination half life in rat at 5 mg/kg, po; format: ADME, organism-based; conditions: in vivo, read-out: beta t1/2 (converted)
[9] = test system: Human immunodeficiency virus 1; test: In vitro antiviral activity against fully replicating HIV1 harboring Gag T332S/[…]/prR41G mutant by multicycle assay; format: functional, organism-based
[10] = test system: Human immunodeficiency virus 1; test: Ratio of EC50 for antiviral activity against fully replicating pseudotype HIV1 harboring Gag A364V mutant by single cycle assay to EC50 for antiviral activity against fully replicating wild type pseudotype HIV1 NLRepRluc-P373S by single cycle assay; format: functional
[11] = Elimination half life in mouse at 5 mg/kg, po; format: ADME, organism-based; conditions: in vivo, read-out: beta t1/2 (converted)
[12] = Volume of distribution at steady state in dog at 2 mg/kg, iv; format: ADME, organism-based, Canis lupus familiaris; conditions: in vivo, read-out: Vdss
[13] = Elimination half life in dog at 2 mg/kg, iv; format: ADME, organism-based, Canis lupus familiaris; conditions: in vivo, read-out: beta t1/2 (converted)
[14] = test system: Human immunodeficiency virus 1; test: In vitro antiviral activity against fully replicating pseudotype HIV1 harboring Gag V370A mutant by single cycle assay; format: functional, organism-based
[15] = test system: Human immunodeficiency virus 1; test: In vitro antiviral activity against fully replicating HIV1 harboring Gag A364V mutant assessed as maximum percent inhibition by multicycle assay relative to control; format: functional
[16] = test system: Human immunodeficiency virus 1; test: In vitro antiviral activity against HIV1 subtype A clinical isolate I-2496; format: functional, organism-based; conditions: Human immunodeficiency virus 1, I-2496
[17] = Oral bioavailability in mouse at 5 mg/kg; format: ADME, organism-based; conditions: in vivo
[18] = Volume of distribution at steady state in rat at 1 mg/kg, iv; format: ADME, organism-based; conditions: in vivo, read-out: Vdss

For `C=C(C)[C@@H]1CC[C@]2(NCCN3CCS(=O)(=O)CC3)CC[C@]3(C)[C@H](CC[C@@H]4[C@@]5(C)CC=C(C6=CC[C@](COc7ncccc7C#N)(C(=O)O)CC6)C(C)(C)[C@@H]5CC[C@]43C)[C@@H]12`, the “Ratio EC50” value [1] was 2.3, the bioavailability [2] was 45.1% and the “Ratio EC50” value [3] was 2.5. For the same compound, the pEC50 [4] was 7.49, the pEC50 [5] was 7.62 and the bioavailability [6] was 59%. For the same compound, the Imax [7] was 98.5%, the half-life [8] was 8.6 h and the pEC50 [9] was 8.10. For the same compound, the “Ratio EC50” value [10] was 6.4, the half-life [11] was 14.5 h and the Vd [12] was 0.43 L/kg. It also gave a half-life [13] of 26.9 h, a pEC50 [14] of 8.22 and an Imax [15] of 95.2%. It also gave a pEC50 [16] of 8.52, a bioavailability [17] of 46% and a Vd [18] of 0.87 L/kg.
